# US20060063759A1, “Tricyclic steroid hormone nuclear receptor modulators” (priority 2002, published 2006)
# Tests used:
# glucocorticoid receptor = biological target: T1, glucocorticoid receptor (Homo sapiens, UniProt P04150); experiment: Glucocorticoid Receptor Binding Assay ([3H]-dexamethasone, A549 cell extract); conditions: [3H]-dexamethasone binding, read-out: GR Ki
# T1 construct: containing 50-200 ug of A549 cell extract and 1.86 nM [^3H]-dexamethasone; host or cells: A549 human lung epithelial cells (sonicated cell extract)
# T1 sequence (P04150 1-777): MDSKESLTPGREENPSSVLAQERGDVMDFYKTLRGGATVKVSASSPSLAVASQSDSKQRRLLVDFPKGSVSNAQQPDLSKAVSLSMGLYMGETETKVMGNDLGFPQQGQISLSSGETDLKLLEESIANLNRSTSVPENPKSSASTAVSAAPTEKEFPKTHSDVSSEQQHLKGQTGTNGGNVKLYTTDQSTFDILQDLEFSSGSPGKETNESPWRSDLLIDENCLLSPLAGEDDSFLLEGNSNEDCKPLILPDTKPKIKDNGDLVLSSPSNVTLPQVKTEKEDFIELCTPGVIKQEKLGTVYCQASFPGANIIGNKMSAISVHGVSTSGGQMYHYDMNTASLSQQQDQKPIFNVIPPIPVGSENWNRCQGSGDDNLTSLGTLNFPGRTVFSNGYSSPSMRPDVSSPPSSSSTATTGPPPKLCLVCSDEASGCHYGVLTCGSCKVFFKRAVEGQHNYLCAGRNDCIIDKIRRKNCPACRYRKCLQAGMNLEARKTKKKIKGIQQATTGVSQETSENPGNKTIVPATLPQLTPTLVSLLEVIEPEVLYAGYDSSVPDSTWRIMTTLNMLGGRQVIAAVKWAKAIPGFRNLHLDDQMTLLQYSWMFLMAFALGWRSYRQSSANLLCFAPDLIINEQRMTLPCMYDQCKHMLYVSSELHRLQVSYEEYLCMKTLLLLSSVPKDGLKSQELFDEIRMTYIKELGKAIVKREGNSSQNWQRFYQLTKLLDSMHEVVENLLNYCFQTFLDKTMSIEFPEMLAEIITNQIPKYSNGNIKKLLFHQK
# Outline: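 A549 cell extract (50–200 ug) incubated with 1.86 nM [3H]-dexamethasone and test compound for 16 h at 4 °C in Tris-HCl pH 7.2 buffer with glycerol and molybdate. Unbound radioligand removed by dextran-coated charcoal, then supernatant bound counts measured by scintillation.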
# human MR = biological target: T2, human MR (Homo sapiens, UniProt P08235); experiment: Mineralocorticoid Receptor Binding Assay ([3H]-aldosterone); conditions: [3H]-aldosterone binding, human MR expressed in Sf9 cells; read-out: MR Ki
# T2 construct: The full length human MR gene is cloned from a human kidney or human brain cDNA library; His tag from the pAcHLT vector (own knowledge); made in house; host or cells: Sf9 insect cells (baculovirus, pAcHLT transfer vector)
# T2 sequence (P08235 1-984): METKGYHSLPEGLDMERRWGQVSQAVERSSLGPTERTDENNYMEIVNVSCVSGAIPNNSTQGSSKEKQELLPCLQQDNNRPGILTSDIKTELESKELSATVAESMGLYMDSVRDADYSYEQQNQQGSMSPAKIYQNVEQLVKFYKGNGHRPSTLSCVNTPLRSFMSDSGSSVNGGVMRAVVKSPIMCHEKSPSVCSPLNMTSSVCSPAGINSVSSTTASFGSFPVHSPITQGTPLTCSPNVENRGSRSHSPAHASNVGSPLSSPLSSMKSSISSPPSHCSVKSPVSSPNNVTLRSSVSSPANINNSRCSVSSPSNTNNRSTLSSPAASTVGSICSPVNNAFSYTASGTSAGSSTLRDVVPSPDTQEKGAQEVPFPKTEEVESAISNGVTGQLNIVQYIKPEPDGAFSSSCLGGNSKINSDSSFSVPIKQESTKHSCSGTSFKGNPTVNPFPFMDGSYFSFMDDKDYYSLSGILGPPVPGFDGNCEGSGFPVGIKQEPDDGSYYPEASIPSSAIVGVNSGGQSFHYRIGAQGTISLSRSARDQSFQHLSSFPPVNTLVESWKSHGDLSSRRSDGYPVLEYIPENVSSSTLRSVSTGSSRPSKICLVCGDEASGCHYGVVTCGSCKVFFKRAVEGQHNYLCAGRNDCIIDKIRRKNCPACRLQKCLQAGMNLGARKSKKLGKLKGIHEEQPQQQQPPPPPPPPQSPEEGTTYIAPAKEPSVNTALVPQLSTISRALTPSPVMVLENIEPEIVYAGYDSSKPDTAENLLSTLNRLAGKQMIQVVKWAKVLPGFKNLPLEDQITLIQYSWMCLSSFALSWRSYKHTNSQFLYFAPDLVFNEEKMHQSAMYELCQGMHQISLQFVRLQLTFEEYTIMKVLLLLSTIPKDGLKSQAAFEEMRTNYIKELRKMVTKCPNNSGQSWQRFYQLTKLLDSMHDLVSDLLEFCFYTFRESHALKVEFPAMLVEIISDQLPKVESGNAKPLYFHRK
# Outline: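 Lysate supernatant of Sf9 cells expressing full-length human MR (20-25 μg protein) was incubated with 0.5 nM [3H]-aldosterone and test compound in molybdate/Tris/phosphate/glycerol buffer, pH 7.5, ~16 h at 4 °C. Bound ligand was filtered and counted by scintillation; IC50 is the concentration halving [3H]-aldosterone binding.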
Ki (glucocorticoid receptor) [nM],Ki (human MR) [nM],SMILES
< 10000,< 500,N#Cc1ccc(C=C2c3ccccc3CCc3cc(F)ccc32)cc1F [Example 336]
< 1000,< 500,CS(=O)(=O)Nc1ccc2c(c1)CCc1ccccc1/C2=C\c1cccc(O)c1 [Example 338]
< 500,< 500,CS(=O)(=O)Nc1cccc(/C=C2\c3ccccc3CCc3cc(NS(C)(=O)=O)ccc32)c1 [Example 339]
< 500,< 500,N#Cc1ccc2c(c1)CCc1ccccc1/C2=C/c1cccc(O)c1 [Example 340]
< 500,< 500,N#Cc1ccc2c(c1)CCc1ccccc1/C2=C\c1cccc(O)c1 [Example 341]
< 500,< 500,CS(=O)(=O)Nc1cccc(/C=C2/c3ccccc3CCc3cc(C#N)ccc32)c1 [Example 342]
< 500,< 1000,CS(=O)(=O)Nc1cccc(/C=C2\c3ccccc3CCc3cc(-c4nn[nH]n4)ccc32)c1 [Example 343]
< 500,< 500,CS(=O)(=O)Nc1cccc(C=C2c3ccccc3CCc3cc(F)cc(F)c32)c1 [Example 344]
< 10000,< 500,CS(=O)(=O)NCc1ccc(/C=C2/c3ccccc3CCc3cc(Cl)ccc32)cc1 [Example 345]
< 10000,< 500,CS(=O)(=O)NCc1ccc(/C=C2\c3ccccc3CCc3cc(Cl)ccc32)cc1 [Example 346]
< 500,< 500,COc1ccc2c(c1)/C(=C/c1cccc(NS(C)(=O)=O)c1)c1ccccc1CC2 [Example 347]
< 500,< 500,COc1ccc2c(c1)/C(=C\c1cccc(NS(C)(=O)=O)c1)c1ccccc1CC2 [Example 348]
< 500,< 500,COc1ccc2c(c1)[C@@H](Cc1cccc(NS(C)(=O)=O)c1)c1ccccc1CC2 [Example 349]
< 500,< 500,CS(=O)(=O)Nc1cccc(/C=C2/c3ccccc3CCc3ccc(O)cc32)c1 [Example 350]
< 500,< 500,COc1ccc2c(c1)CCc1ccccc1[C@@H]2Cc1cccc(NS(C)(=O)=O)c1 [Example 351]
< 500,< 500,CS(=O)(=O)Nc1cccc(/C=C2\c3ccccc3CCc3ccc(O)cc32)c1 [Example 352]
< 500,< 500,COc1cccc2c1C(=Cc1cccc(NS(C)(=O)=O)c1)c1ccccc1CC2 [Example 353]
< 500,< 500,CS(=O)(=O)Nc1cccc(/C=C2\c3ccccc3CCc3cc(F)ccc32)c1 [Example 355]
< 1000,< 500,CS(=O)(=O)Nc1cccc(C=C2c3ccc(F)cc3CCc3cc(F)ccc32)c1 [Example 360]
< 500,< 500,N#Cc1cccc2c1CCc1ccccc1/C2=C/c1cccc(O)c1 [Example 363]
< 500,< 500,N#Cc1cccc2c1CCc1ccccc1/C2=C\c1cccc(O)c1 [Example 364]
< 500,< 500,CS(=O)(=O)Nc1cccc(/C=C2\c3ccccc3CCc3cccc(Cl)c32)c1 [Example 365]
< 500,< 500,CS(=O)(=O)Nc1cccc(/C=C2/c3ccccc3CCc3cccc(Cl)c32)c1 [Example 366]
< 10000,< 500,Oc1cccc(/C=C2/c3ccccc3CCc3cccc(Cl)c32)c1 [Example 367]

Ki (glucocorticoid receptor) [nM],Ki (human MR) [nM],SMILES
< 10000,< 500,COc1cccc(/C=C2\c3ccccc3CCc3c(O)cccc32)c1 [Example 368]
< 10000,< 500,COc1cccc(/C=C2/c3ccccc3CCc3c(O)cccc32)c1 [Example 369]
< 1000,< 500,Oc1cccc(/C=C2\c3ccccc3CCc3cccc(Cl)c32)c1 [Example 370]
< 500,< 500,Oc1cccc(/C=C2/c3ccccc3CCc3c(Br)cccc32)c1 [Example 371]
< 1000,< 500,Oc1cccc(/C=C2\c3ccccc3CCc3c(Br)cccc32)c1 [Example 372]
< 10000,< 500,Oc1cccc(C=C2c3ccccc3CCc3c2cccc3C(Br)Br)c1 [Example 373]
< 500,< 500,CS(=O)(=O)Nc1cccc(/C=C2/c3ccccc3CCc3cc(C(F)F)ccc32)c1 [Example 374]
< 500,< 500,CS(=O)(=O)Nc1cccc(/C=C2\c3ccccc3CCc3cc(C(F)F)ccc32)c1 [Example 375]
< 500,< 500,Oc1cccc(/C=C2\c3ccccc3CCc3c(O)cccc32)c1 [Example 376]
< 10000,< 500,Oc1cccc(/C=C2/c3ccccc3CCc3c(O)cccc32)c1 [Example 377]
< 1000,< 500,O=Cc1cccc2c1CCc1ccccc1/C2=C\c1cccc(O)c1 [Example 378]
< 10000,< 500,O=Cc1cccc2c1CCc1ccccc1/C2=C/c1cccc(O)c1 [Example 379]
< 1000,< 500,Oc1cccc(/C=C2/c3ccccc3CCc3c2cccc3C(F)F)c1 [Example 380]
< 500,< 500,CS(=O)(=O)Nc1cccc(/C=C2/c3ccccc3CCc3c2cccc3C(F)F)c1 [Example 381]
< 500,< 500,CS(=O)(=O)Nc1cccc(/C=C2\c3ccccc3CCc3c2cccc3C(F)F)c1 [Example 382]
< 500,< 500,CS(=O)(=O)Nc1cccc(C[C@H]2c3ccccc3CCc3cc(F)ccc32)c1 [Example 383]
< 500,< 500,Nc1cccc(C=C2c3ccc(F)cc3CCc3cc(F)ccc32)c1 [Example 384]
< 1000,< 500,N#CNc1cccc(C=C2c3ccc(F)cc3CCc3cc(F)ccc32)c1 [Example 385]
< 500,< 500,COC(=O)c1ccc2c(c1)CCc1ccccc1/C2=C\c1cccc(NS(C)(=O)=O)c1 [Example 386]
< 500,< 500,COC(=O)c1ccc2c(c1)CCc1ccccc1/C2=C/c1cccc(NS(C)(=O)=O)c1 [Example 387]
< 500,< 500,CSc1ccc2c(c1)CCc1ccccc1/C2=C\c1cccc(NS(C)(=O)=O)c1 [Example 388]
< 500,< 500,CSc1ccc2c(c1)CCc1ccccc1/C2=C/c1cccc(NS(C)(=O)=O)c1 [Example 389]
< 500,< 500,CS(=O)(=O)Nc1cccc(/C=C2/c3ccccc3CCc3cc(C(F)(F)F)ccc32)c1 [Example 390]
< 500,< 500,CS(=O)(=O)Nc1cccc(/C=C2\c3ccccc3CCc3cc(C(F)(F)F)ccc32)c1 [Example 391]
